Measurements reported in patent publication US20050182025A1, “Amidinylphenyl compounds and their use as fungicides” (priority 2002, published 2005).

Columns and labels:
Type in all cases: in vivo
[1] = system: Erysiphe graminis f. sp. tritici; experiment: Test A: preventive spray on wheat seedlings, wheat powdery mildew, disease rating; conditions: wheat seedlings sprayed to run-off, inoculated the following day with Erysiphe graminis f. sp. tritici, rated after 7 days at 20° C.; test concentration not given
Summary of the method: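 Preventive test: Erysiphe graminis f. sp. tritici spore dust applied one day after run-off spraying of seedlings with acetone/water/surfactant suspension, 200 ppm equating to 500 g/ha. Plants held 7 days at 20 °C; ratings give % disease control versus controls, 100 full, 0 none.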

Puccinia recondita = experiment: Test B: preventive spray on wheat seedlings, wheat leaf rust, disease rating; conditions: wheat seedlings sprayed to run-off, inoculated the following day with Puccinia recondita, 24 h saturated atmosphere then 6 days at 20° C.; test concentration not given
Summary of the method: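 Preventive test: seedlings inoculated with Puccinia recondita one day after run-off spraying with test suspension (acetone/water, 250 ppm Trem 014; 200 ppm equals 500 g/ha). Rating after 24 h at 20° C in saturation plus 6 days in 20° C growth chamber; 0–100 scale versus controls.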

Septoria nodorum = experiment: Test C: preventive spray on wheat seedlings, Septoria glume blotch, disease rating; conditions: wheat seedlings sprayed to run-off, inoculated the following day with Septoria nodorum, 48 h saturated atmosphere then 9 days at 20° C.; test concentration not given
Summary of the method: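 Preventive test: one day after spraying (to run-off; 200 ppm ≈ 500 g/ha, in acetone/water with 250 ppm surfactant), seedlings received a S. nodorum spore suspension. After 48 h in saturated air and 9 days in a growth chamber, both at 20° C., % disease control versus controls was scored.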

SMILES | Test A disease control rating (100 = 100% disease control, 0 = no disease control relative to the controls) [1] | Test B disease control rating (100 = 100% disease control, 0 = no disease control relative to the controls) (Puccinia recondita) | Test C disease control rating (100 = 100% disease control, 0 = no disease control relative to the controls) (Septoria nodorum)
Cc1cc(NC(=O)NCC(C)C)c(C)cc1N=CN(C)C [compound 189] | 0% | 9% | 0%
Cc1cc(OCCC[Si](C)(C)C)c(Cl)cc1N=CN(C)C [compound 172] | 100% | 100% | 100%
Cc1cc(OCCC(C)C)c(C)cc1N=CN(C)C [Compound 8] | 97% | 100% | 98%
C=C(CCCOc1cc(C)c(N=CN(C)C)cc1C)C(C)C [Compound 9] | 98% | 100% | 97%
CCCCC(CCCC)Nc1cc(C)c(N=CN(C)C)cc1C [compound 150] | 0% | 0% | 47%
CCCCCCCCOc1cc(C)c(N=CN(C)C)cc1C [Compound 22] | 98% | 100% | 88%
Cc1c(N=CN(C)C)cc(Cl)c(OCCCC(C)C)c1Cl [compound 115] | 85% | 85% | 100%
CCN(C)C=Nc1cc(Cl)c(OC(C)CCC(C)C)cc1C (stereo not drawn) [compound 198] | 100% | 100% | 100%
CCCN(C)C=Nc1cc(F)c(OCCC[Si](C)(C)C)cc1C [compound 60] | 100% | 100% | 100%
CCN(CC)C(=S)Nc1cc(Cl)c(OCCC[Si](C)(C)C)c(Cl)c1C [compound 179] | 20% | 23% | 0%
CCN(C)C(=S)Nc1cc(C)c(OCCC[Si](C)(C)C)c(Cl)c1C [compound 134] | 100% | 100% | 81%
CCN(C)C(=S)Nc1cc(C)c(OCCCC(C)(C)C)c(Cl)c1C [compound 139] | 100% | 100% | 99%
Cc1cc(OCCC[Si](C)(C)C)c(C)cc1NC(=S)N(C)C [compound 167] | 99% | 99% | 100%
COC(CCCCOc1cc(C)c(N=CN(C)C)cc1C)(OC)OC [Compound 7] | 0% | 0% | 0%
CCN(C)C=Nc1cc(C(C)C)c(OCCC[Si](C)(C)C)cc1C [compound 76] | 100% | 100% | 100%
CCN(C(=S)Nc1cc(Cl)c(OCCCC(C)C)cc1Cl)C(C)C [compound 127] | 0% | 99% | 100%
